Data on nine molecules can be found in PMC8318587, “Structure-guided microbial targeting of antistaphylococcal prodrugs” (eLife, 2021).

The target of one assay is T1, SaFrmB (Staphylococcus aureus, UniProt A0A0H3KFB7).
T1 construct: made in house; host or cells: E. coli BL21 (DE3)
T1 sequence (A0A0H3KFB7 1-253): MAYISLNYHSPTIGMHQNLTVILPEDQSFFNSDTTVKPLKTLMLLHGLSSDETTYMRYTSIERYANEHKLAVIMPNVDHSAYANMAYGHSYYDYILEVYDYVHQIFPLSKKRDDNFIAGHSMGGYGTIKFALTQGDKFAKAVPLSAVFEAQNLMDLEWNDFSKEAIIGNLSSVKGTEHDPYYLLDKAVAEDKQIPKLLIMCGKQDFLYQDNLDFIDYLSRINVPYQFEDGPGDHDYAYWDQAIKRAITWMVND
Briefly: Esterase substrate specificity, fluorogenic SAR library kinetics. It is filed as biochemical. The conditions noted are these: SaFrmB 15 µg/mL, pH 7.5, 37°C. The protocol:
(§1) Kinetic measurements were performed according to [White et al., 2018] with minor variation. Lyophilized human and mouse sera were resuspended according to manufacturer instructions in highly pure, filtered water at protein concentrations of 85 mg/mL and 70 mg/mL, respectively. One milliliter of resuspended serum was added to a 24 mL mastermix for a final concentration of 31.25 mM Tris pH 7.5, 312.5 mM NaCl, 1.25 mM MgCl2, 12.5% glycerol, and 3.4 mg/mL or 2.8 mg/mL protein for human and mouse serum, respectively. For purified proteins, 5 mL of a 75 µg/mL stock was added to yield a 20 mL mastermix containing 31.25 mM Tris pH 7.5, 312.5 mM NaCl, 1.25 mM MgCl2, 12.5% glycerol, and 18.75 µg/mL protein. Mastermix was stored on ice when not in use. Twenty microliters of mastermix was transferred to a black, 96-well half area microplate (Corning, CLS3993) and prewarmed at 37°C. Fluorogenic substrates were prepared as 10 mM stock solutions in 100% DMSO and were diluted in water to a starting concentration of 500 µM. Enzyme catalyzed substrate hydrolysis was initiated by addition of 5 µL substrate dilution in technical duplicate to the prewarmed serum or protein solution. Final assay concentrations were as follows: 25 mM Tris pH 7.5, 250 mM NaCl, 1 mM MgCl2, 10% glycerol, and protein at a concentration of 2.72 mg/mL (human serum), 2.24 mg/mL (mouse serum), or 15 µg/mL (FrmB, GloB). The resulting change in fluorescence (λex = 485 nm, λem = 520 nm) was followed for 15 min at 37°C, collecting data every 30 s on a FLUOstar Omega microplate reader (BMG Labtech). Fluorescence measurements were converted to molar concentrations using a fluorescein standard curve (2.5 nmol–0.6 pmol). The initial rates of reaction were measured three independent times with two technical replicates per measurement and fit to a line using GraphPad Prism (GraphPad Software, La Jolla, CA). Initial rates of reaction were plotted versus the concentration of substrate and fit to a standard Michaelis–Menten equation (v = Vmax[S]/(Km + [S])), yielding estimates of Vmax and Km. Values for kcat and kcat/Km were calculated based on amount of enzyme added when purified enzymes were used.

The target of a further assay is T2, SaGloB (Staphylococcus aureus, UniProt P0DY75).
T2 sequence (P0DY75 1-207): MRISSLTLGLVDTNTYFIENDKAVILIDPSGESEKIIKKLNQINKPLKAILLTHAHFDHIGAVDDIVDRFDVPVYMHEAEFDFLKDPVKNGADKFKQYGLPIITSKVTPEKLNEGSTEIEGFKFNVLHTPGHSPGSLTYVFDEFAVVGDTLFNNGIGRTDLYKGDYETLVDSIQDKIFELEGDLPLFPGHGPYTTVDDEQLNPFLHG
Described as above. The conditions noted are these: SaGloB; for Km: fluorogenic ester substrate. It is filed as biochemical. On the procedure: as §1

Another assay deals with human sera. The assay can be described thus: Esterase substrate specificity, fluorogenic SAR library kinetics in serum. In kind it is in vitro ADME. On the procedure: as §1
A further assay has as its system mouse sera. Described as above. It is filed as in vitro ADME. On the procedure: as §1
The test system of assay [1] is S. aureus Newman. Briefly: Minimum inhibitory concentration (MIC) in liquid LB media. In kind it is cell-based. The conditions noted are these: Staphylococcus aureus. The protocol: (§2) Antibiotic resistance frequency was determined on LB agar plates containing 4× and 10×, the minimum inhibitory concentrations of several antibiotics. MICs were determined for S. aureus Newman in liquid LB media. […] Briefly, S. aureus Newman was grown in LB media to late log-phase and centrifuged at 4000 × g for 15 min before resuspension at an OD600 nm of 30 (~1E11 CFU/mL) in LB media. One hundred microliter aliquots of concentrated S. aureus was plated in duplicate on selective and non-selective plates and incubated at 37°C. After 24 hr, mutation rates were calculated by counting the number of colonies present and dividing by the total number of colonies plated. Experiments were performed in triplicate.

For assay [2], the system named is S. aureus Newman. It is filed as cell-based, Staphylococcus aureus. The conditions noted are these: for Mutational frequency at 4× MIC / Mutational frequency at 10× MIC: LB agar, 24 hr, mean ± SD. The protocol: as §2
[3] abbreviates: S. aureus Newman, liquid LB media, read-out: MIC.

The structures appear in SMILES notation. Converted amounts (≈) assume the structure as drawn. Where two headings read alike, the source gives them in different places.

As usually defined, the Km is the substrate concentration at which the rate is half of its maximum. As for `O=C(COc1ccccc1)OCOc1ccc2c(c1)Oc1cc(OCOC(=O)COc3ccccc3)ccc1C21OC(=O)c2ccccc21` [11O], the Km at SaFrmB, at SaGloB, in the assay on human sera and with mouse sera was above 50 µM in each case.
Regarding `O=C(CSc1ccccc1)OCOc1ccc2c(c1)Oc1cc(OCOC(=O)CSc3ccccc3)ccc1C21OC(=O)c2ccccc21` [11S], the Km on SaFrmB, on SaGloB, in the assay with human sera and in the assay on mouse sera was above 50 µM throughout.
For the molecule `C=CCOC(C)C(=O)OCOc1ccc2c(c1)Oc1cc(OCOC(=O)C(C)OCC=C)ccc1C21OC(=O)c2ccccc21` (stereo not drawn) [12O], the Km at SaFrmB was above 50 µM; in the assay on human sera it was 42.2 µM; in the assay with mouse sera it was above 50 µM. Further, the kcat/kuncat on SaGloB (normalised to uncatalysed hydrolysis rate) is listed as 1.28 103. Moreover, the Vmax with human sera was 4.00 pmol*min-1*mg sera-1.
As for `C=CCSC(C)C(=O)OCOc1ccc2c(c1)Oc1cc(OCOC(=O)C(C)SCC=C)ccc1C21OC(=O)c2ccccc21` (stereo not drawn) [12S], the Km at SaFrmB, on SaGloB, with human sera and in the assay on mouse sera was above 50 µM throughout.
By MIC is commonly meant the least concentration at which growth counts as inhibited. For the molecule `CCC[C@@H]1C[C@@H](C(=O)N[C@@H]([C@H]2O[C@H](SC)[C@H](O)[C@@H](O)[C@H]2O)[C@H](C)Cl)N(C)C1` [Clindamycin], the MIC with S. aureus Newman [1] (setting [3]) turned out to be 0.25 µg/mL (≈ 0.588 µM). In the assay on S. aureus Newman [2], the “Mutational frequency at 4× MIC” value was <1 E-10 and the “Mutational frequency at 10× MIC” value was <1 E-10.
Consider `CC(=O)NC[C@H]1CN(c2ccc(N3CCOCC3)c(F)c2)C(=O)O1` [Linezolid], for which the MIC in the assay on S. aureus Newman [1] (setting [3]) came out at 1.67 µg/mL (≈ 4.95 µM). In the assay with S. aureus Newman [2], the “Mutational frequency at 4× MIC” value is reported as <1 E-10 and the “Mutational frequency at 10× MIC” value was <1 E-10.
In the case of `CCOc1ccc2ccccc2c1C(=O)N[C@@H]1C(=O)N2[C@@H]1SC(C)(C)[C@@H]2C(=O)O` [Nafcillin], the MIC in the assay on S. aureus Newman [1] (setting [3]) was 0.5 µg/mL (≈ 1.21 µM). Moreover, in the assay with S. aureus Newman [2], the “Mutational frequency at 4× MIC” value was <1 E-10 and the “Mutational frequency at 10× MIC” value is <1 E-10.
Regarding `CO[C@H]1/C=C/O[C@@]2(C)Oc3c(C)c(O)c4c(O)c(c(/C=N/N5CCN(C)CC5)c(O)c4c3C2=O)NC(=O)/C(C)=C\C=C\[C@H](C)[C@H](O)[C@@H](C)[C@@H](O)[C@@H](C)[C@H](OC(C)=O)[C@@H]1C` [Rifampicin], in the assay with S. aureus Newman [1] (setting [3]), the MIC worked out at 0.0075 µg/mL (≈ 0.00911 µM). Besides, in the assay with S. aureus Newman [2], the “Mutational frequency at 4× MIC” value is recorded as 8.96 ± 0.20 E-08 and the “Mutational frequency at 10× MIC” value was 7.64 ± 2.10 E-08. For the same molecule, the Spontaneous resistance frequency in the assay on S. aureus Newman [2] (at 4 and 10 times the MIC) is listed as ~ 8E-8.
In the assay with S. aureus Newman [1] (NEWMAN), `CN[C@H](CC(C)C)C(=O)N[C@H]1C(=O)N[C@@H](CC(N)=O)C(=O)N[C@H]2C(=O)N[C@H]3C(=O)N[C@H](C(=O)N[C@H](C(=O)O)c4cc(O)cc(O)c4-c4cc3ccc4O)[C@H](O)c3ccc(c(Cl)c3)Oc3cc2cc(c3O[C@@H]2O[C@H](CO)[C@@H](O)[C@H](O)[C@H]2O[C@H]2C[C@](C)(N)[C@H](O)[C@H](C)O2)Oc2ccc(cc2Cl)[C@H]1O` [Vancomycin] showed an MIC of 2 µg/mL (≈ 1.38 µM). In the assay with S. aureus Newman [2], the “Mutational frequency at 4× MIC” value is <1 E-10 and the “Mutational frequency at 10× MIC” value is given as <1 E-10.
